Assay results published in PubChem BioAssay AID1963450 (Molecular Pharmacology Branch, DTP, NCI, 2024).

Test system: 556581-035-R-J1-PDC complex spheroid growth
Experiment: Anticancer human tumor 556581-035-R-J1-PDC patient-derived ovarian carcinoma cell line growth inhibition [Asc]
Settings: for IC50: curve of first compound; for viability, T/C: stronger effect = lower value
Outline: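 Stromal components (HUVEC and hMSC) are co-assembled with the cancer cells into multicellular spheroids. Drugs are then added singly or paired, at concentrations falling by half-log increments from a clinically achievable maximum, capped at 10 microM without known Cmax.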

[1] = second compound 0.01 µM, first compound 0.00316 µM
[2] = second compound 0.01 µM, first compound 0.01 µM
[3] = second compound 0.01 µM, first compound 0.0316 µM
[4] = second compound 0.01 µM, first compound 0.1 µM
[5] = second compound 0.01 µM, first compound 0.316 µM
[6] = second compound 0.01 µM, first compound 1 µM
[7] = second compound 0.0316 µM, first compound 0.00316 µM
[8] = second compound 0.0316 µM, first compound 0.01 µM
[9] = second compound 0.0316 µM, first compound 0.0316 µM
[10] = second compound 0.0316 µM, first compound 0.1 µM
[11] = second compound 0.0316 µM, first compound 0.316 µM
[12] = second compound 0.0316 µM, first compound 1 µM
[13] = second compound 0.1 µM, first compound 0.00316 µM
[14] = second compound 0.1 µM, first compound 0.01 µM
[15] = second compound 0.1 µM, first compound 0.0316 µM
[16] = second compound 0.1 µM, first compound 0.1 µM
[17] = second compound 0.1 µM, first compound 0.316 µM
[18] = second compound 0.1 µM, first compound 1 µM
[19] = second compound 0.316 µM, first compound 0.00316 µM
[20] = second compound 0.316 µM, first compound 0.01 µM
[21] = second compound 0.316 µM, first compound 0.0316 µM
[22] = second compound 0.316 µM, first compound 0.1 µM
[23] = second compound 0.316 µM, first compound 0.316 µM
[24] = second compound 0.316 µM, first compound 1 µM
[25] = second compound 1 µM, first compound 0.00316 µM
[26] = second compound 1 µM, first compound 0.01 µM
[27] = second compound 1 µM, first compound 0.0316 µM
[28] = second compound 1 µM, first compound 0.1 µM
[29] = second compound 1 µM, first compound 0.316 µM
[30] = second compound 1 µM, first compound 1 µM
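Note: spheroids exposed to agents for 7 days before viability read.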

## CCN1CCN(Cc2ccc(Nc3ncc(F)c(-c4cc(F)c5nc(C)n(C(C)C)c5c4)n3)nc2)CC1 + CNC(C)C(=O)NC1CN(S(=O)(=O)c2cccc(S(=O)(=O)N3CCC4CCC(C(=O)NC(c5ccccc5)c5ccccc5)N4C(=O)C(NC(=O)C(C)NC)C3)c2)CCC2CCC(C(=O)NC(c3ccccc3)c3ccccc3)N2C1=O
Second compound 0.01 µM
  IC50: > 1000 nM
Second compound 0.0316 µM
  IC50: > 1000 nM
Second compound 0.1 µM
  IC50: 339 nM
Second compound 0.316 µM
  IC50: 318 nM
Second compound 1 µM
  IC50: 251 nM
[1]
  viability, T/C: 94.7%
[2]
  viability, T/C: 97.4%
[3]
  viability, T/C: 67.4%
[4]
  viability, T/C: 73.6%
[5]
  viability, T/C: 78.5%
[6]
  viability, T/C: 72.2%
[7]
  viability, T/C: 87.5%
[8]
  viability, T/C: 88.7%
[9]
  viability, T/C: 83%
[10]
  viability, T/C: 85.7%
[11]
  viability, T/C: 75.5%
[12]
  viability, T/C: 56.2%
[13]
  viability, T/C: 73.6%
[14]
  viability, T/C: 79.3%
[15]
  viability, T/C: 78.8%
[16]
  viability, T/C: 65.4%
[17]
  viability, T/C: 51.6%
[18]
  viability, T/C: 44%
[19]
  viability, T/C: 84.3%
[20]
  viability, T/C: 82.8%
[21]
  viability, T/C: 86.5%
[22]
  viability, T/C: 57.8%
[23]
  viability, T/C: 56%
[24]
  viability, T/C: 37.6%
[25]
  viability, T/C: 78.2%
[26]
  viability, T/C: 82.8%
[27]
  viability, T/C: 82.7%
[28]
  viability, T/C: 56.2%
[29]
  viability, T/C: 51.7%
[30]
  viability, T/C: 33%

## NC(=O)C(=Cn1cnc(-c2cc(C(F)(F)F)cc(C(F)(F)F)c2)n1)c1cncnc1 + CNC(C)C(=O)NC1CN(S(=O)(=O)c2cccc(S(=O)(=O)N3CCC4CCC(C(=O)NC(c5ccccc5)c5ccccc5)N4C(=O)C(NC(=O)C(C)NC)C3)c2)CCC2CCC(C(=O)NC(c3ccccc3)c3ccccc3)N2C1=O
Second compound 0.01 µM
  IC50: > 300 nM
Second compound 0.0316 µM
  IC50: > 300 nM
Second compound 0.1 µM
  IC50: > 300 nM
Second compound 0.316 µM
  IC50: > 300 nM
Second compound 1 µM
  IC50: > 300 nM
Second compound 0.01 µM, first compound 0.000949 µM
  viability, T/C: 93%
Second compound 0.01 µM, first compound 0.003 µM
  viability, T/C: 85.2%
Second compound 0.01 µM, first compound 0.00949 µM
  viability, T/C: 63.7%
Second compound 0.01 µM, first compound 0.03 µM
  viability, T/C: 66.8%
Second compound 0.01 µM, first compound 0.0949 µM
  viability, T/C: 90.1%
Second compound 0.01 µM, first compound 0.3 µM
  viability, T/C: 72.6%
Second compound 0.0316 µM, first compound 0.000949 µM
  viability, T/C: 105%
Second compound 0.0316 µM, first compound 0.003 µM
  viability, T/C: 86%
Second compound 0.0316 µM, first compound 0.00949 µM
  viability, T/C: 87.9%
Second compound 0.0316 µM, first compound 0.03 µM
  viability, T/C: 79.2%
Second compound 0.0316 µM, first compound 0.0949 µM
  viability, T/C: 75.7%
Second compound 0.0316 µM, first compound 0.3 µM
  viability, T/C: 82%
Second compound 0.1 µM, first compound 0.000949 µM
  viability, T/C: 70.7%
Second compound 0.1 µM, first compound 0.003 µM
  viability, T/C: 79.5%
Second compound 0.1 µM, first compound 0.00949 µM
  viability, T/C: 76.1%
Second compound 0.1 µM, first compound 0.03 µM
  viability, T/C: 50%
Second compound 0.1 µM, first compound 0.0949 µM
  viability, T/C: 64.1%
Second compound 0.1 µM, first compound 0.3 µM
  viability, T/C: 63.3%
Second compound 0.316 µM, first compound 0.000949 µM
  viability, T/C: 76.5%
Second compound 0.316 µM, first compound 0.003 µM
  viability, T/C: 75.8%
Second compound 0.316 µM, first compound 0.00949 µM
  viability, T/C: 71.7%
Second compound 0.316 µM, first compound 0.03 µM
  viability, T/C: 65.8%
Second compound 0.316 µM, first compound 0.0949 µM
  viability, T/C: 65.3%
Second compound 0.316 µM, first compound 0.3 µM
  viability, T/C: 62.2%
Second compound 1 µM, first compound 0.000949 µM
  viability, T/C: 76.9%
Second compound 1 µM, first compound 0.003 µM
  viability, T/C: 73%
Second compound 1 µM, first compound 0.00949 µM
  viability, T/C: 66.7%
Second compound 1 µM, first compound 0.03 µM
  viability, T/C: 63%
Second compound 1 µM, first compound 0.0949 µM
  viability, T/C: 59.7%
Second compound 1 µM, first compound 0.3 µM
  viability, T/C: 53.3%

## O=C(c1ccc(F)c(F)c1Nc1ccc(I)cc1F)N1CC(O)([C@@H]2CCCCN2)C1 + CNC(C)C(=O)NC1CN(S(=O)(=O)c2cccc(S(=O)(=O)N3CCC4CCC(C(=O)NC(c5ccccc5)c5ccccc5)N4C(=O)C(NC(=O)C(C)NC)C3)c2)CCC2CCC(C(=O)NC(c3ccccc3)c3ccccc3)N2C1=O
Second compound 0.01 µM
  IC50: 219 nM
Second compound 0.0316 µM
  IC50: 187 nM
Second compound 0.1 µM
  IC50: 92 nM
Second compound 0.316 µM
  IC50: 183 nM
Second compound 1 µM
  IC50: 119 nM
[1]
  viability, T/C: 68.6%
[2]
  viability, T/C: 71.7%
[3]
  viability, T/C: 87.2%
[4]
  viability, T/C: 83.6%
[5]
  viability, T/C: 37%
[6]
  viability, T/C: 10.6%
[7]
  viability, T/C: 86.4%
[8]
  viability, T/C: 72.7%
[9]
  viability, T/C: 84.2%
[10]
  viability, T/C: 71.9%
[11]
  viability, T/C: 31.2%
[12]
  viability, T/C: 13.3%
[13]
  viability, T/C: 68.3%
[14]
  viability, T/C: 64.5%
[15]
  viability, T/C: 59.7%
[16]
  viability, T/C: 50.8%
[17]
  viability, T/C: 27.1%
[18]
  viability, T/C: 12.7%
[19]
  viability, T/C: 73.9%
[20]
  viability, T/C: 68.8%
[21]
  viability, T/C: 91.7%
[22]
  viability, T/C: 66.3%
[23]
  viability, T/C: 33.7%
[24]
  viability, T/C: 15.2%
[25]
  viability, T/C: 70.9%
[26]
  viability, T/C: 81.4%
[27]
  viability, T/C: 74%
[28]
  viability, T/C: 53.6%
[29]
  viability, T/C: 24.6%
[30]
  viability, T/C: 11.2%
